Results taken from ChEMBL document CHEMBL1201862, “PubChem BioAssay data set” (2004).
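Growth conditions: 96-well plates. Treatment: test compound, 48 hours, 5 concentrations. Analysis: linear interpolation between bracketing concentrations; unreached endpoints set to highest concentration. Abbreviation: GI50, concentration required for 50% inhibition of growth.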 The source made the active and inactive calls. Rule as the data show it: active = GI50 up to about 1.1 µM and inactive = higher.

What was measured:
Test in all cases: growth of human tumour cells (NCI), 48 h
RPMI-8226 = tested on: RPMI-8226
DU-145 = tested on: DU-145
RXF 393 = tested on: RXF 393
HOP-62 = tested on: HOP-62
SF-295 = tested on: SF-295
COLO 205 = tested on: COLO 205
SR = tested on: SR
KM12 = tested on: KM12
OVCAR-3 = tested on: OVCAR-3
MOLT-4 = tested on: MOLT-4
UACC-62 = tested on: UACC-62
SF-268 = tested on: SF-268
SNB-19 = tested on: SNB-19
MDA-N = tested on: MDA-N
SK-MEL-2 = tested on: SK-MEL-2
NCI-H226 = tested on: NCI-H226
Hs-578T = tested on: Hs-578T
OVCAR-5 = tested on: OVCAR-5
SK-MEL-5 = tested on: SK-MEL-5
UO-31 = tested on: UO-31
NCI-H23 = tested on: NCI-H23
ACHN = tested on: ACHN
PC-3 = tested on: PC-3
BT-549 = tested on: BT-549
HT-29 = tested on: HT-29
CCRF-CEM = tested on: CCRF-CEM
SW-620 = tested on: SW-620
SN12C = tested on: SN12C
CAKI-1 = tested on: CAKI-1
HCT-116 = tested on: HCT-116
NCI-H460 = tested on: NCI-H460
T47D = tested on: T47D
SF-539 = tested on: SF-539
HOP-92 = tested on: HOP-92
M14 = tested on: M14
MDA-MB-231 = tested on: MDA-MB-231
786-0 = tested on: 786-0
K562 = tested on: K562
EKVX = tested on: EKVX
MCF7 = tested on: MCF7
LOX IMVI = tested on: LOX IMVI
UACC-257 = tested on: UACC-257
HCT-15 = tested on: HCT-15
IGROV-1 = tested on: IGROV-1
OVCAR-8 = tested on: OVCAR-8
TK-10 = tested on: TK-10
NCI/ADR-RES = tested on: NCI/ADR-RES
U-251 = tested on: U-251
A498 = tested on: A498
MDA-MB-435 = tested on: MDA-MB-435
SK-OV-3 = tested on: SK-OV-3
SK-MEL-28 = tested on: SK-MEL-28
A549 = tested on: A549
OVCAR-4 = tested on: OVCAR-4
NCI-H522 = tested on: NCI-H522
Malme-3M = tested on: Malme-3M
SNB-75 = tested on: SNB-75
HL-60 = tested on: HL-60

Compound: O=C1/C(=C/c2cccnc2)SC(=S)N1Cc1ccco1
- GI50 (RPMI-8226): 2.2 µM (inactive)
- GI50 (DU-145): 2.19 µM (inactive)
- GI50 (RXF 393): 3.44 µM (inactive)
- GI50 (HOP-62): 5.77 µM (inactive)
- GI50 (SF-295): 35.7 µM (inactive)
- GI50 (COLO 205): 6.15 µM (inactive)
- GI50 (SR): 1.44 µM (inactive)
- GI50 (KM12): 3.13 µM (inactive)
- GI50 (OVCAR-3): 3.31 µM (inactive)
- GI50 (MOLT-4): 3.08 µM (inactive)
- GI50 (UACC-62): 8.97 µM (inactive)
- GI50 (SF-268): 5.94 µM (inactive)
- GI50 (SNB-19): 32 µM (inactive)
- GI50 (MDA-N): 2.33 µM (inactive)
- GI50 (SK-MEL-2): 8.87 µM (inactive)
- GI50 (NCI-H226): 24.4 µM (inactive)
- GI50 (Hs-578T): 8.39 µM (inactive)
- GI50 (OVCAR-5): 36.1 µM (inactive)
- GI50 (SK-MEL-5): 13.4 µM (inactive)
- GI50 (UO-31): 2.84 µM (inactive)
- GI50 (NCI-H23): 4.72 µM (inactive)
- GI50 (ACHN): 10.7 µM (inactive)
- GI50 (PC-3): 3.87 µM (inactive)
- GI50 (BT-549): 27.2 µM (inactive)
- GI50 (HT-29): 4.01 µM (inactive)
- GI50 (CCRF-CEM): 3.21 µM (inactive)
- GI50 (SW-620): 3.84 µM (inactive)
- GI50 (SN12C): 4.47 µM (inactive)
- GI50 (CAKI-1): 9.59 µM (inactive)
- GI50 (HCT-116): 3.06 µM (inactive)
- GI50 (NCI-H460): 6.37 µM (inactive)
- GI50 (T47D): 11.7 µM (inactive)
- GI50 (SF-539): 2.33 µM (inactive)
- GI50 (HOP-92): 5.32 µM (inactive)
- GI50 (M14): 5.6 µM (inactive)
- GI50 (MDA-MB-231): 7.08 µM (inactive)
- GI50 (786-0): 3.29 µM (inactive)
- GI50 (K562): 14.6 µM (inactive)
- GI50 (EKVX): 49.5 µM (inactive)
- GI50 (MCF7): 3.28 µM (inactive)
- GI50 (LOX IMVI): 4.16 µM (inactive)
- GI50 (UACC-257): 4.92 µM (inactive)
- GI50 (HCT-15): 3.72 µM
- GI50 (IGROV-1): 6.68 µM (inactive)
- GI50 (OVCAR-8): 4.7 µM (inactive)
- GI50 (TK-10): 2.34 µM (inactive)
- GI50 (NCI/ADR-RES): 20.1 µM (inactive)
- GI50 (U-251): 4.37 µM (inactive)
- GI50 (A498): 24.7 µM (inactive)
- GI50 (MDA-MB-435): 2.15 µM (inactive)
- GI50 (SK-OV-3): 19.1 µM (inactive)
- GI50 (SK-MEL-28): 31 µM (inactive)
- GI50 (A549): 31 µM (inactive)
- GI50 (OVCAR-4): 8.81 µM (inactive)
- GI50 (NCI-H522): 1.43 µM (inactive)
- GI50 (Malme-3M): 6.73 µM (inactive)

Compound: O=C(O)CNC(=O)c1ccccc1O [SALICYLURIC ACID]
- GI50 (RPMI-8226): > 100 µM (inactive)
- GI50 (DU-145): > 100 µM (inactive)
- GI50 (RXF 393): > 100 µM (inactive)
- GI50 (HOP-62): > 100 µM (inactive)
- GI50 (SF-295): > 100 µM (inactive)
- GI50 (COLO 205): > 100 µM (inactive)
- GI50 (SR): > 100 µM (inactive)
- GI50 (KM12): > 100 µM (inactive)
- GI50 (OVCAR-3): > 100 µM (inactive)
- GI50 (MOLT-4): > 100 µM (inactive)
- GI50 (SNB-75): > 100 µM (inactive)
- GI50 (UACC-62): > 100 µM (inactive)
- GI50 (SF-268): > 100 µM (inactive)
- GI50 (SNB-19): > 100 µM (inactive)
- GI50 (MDA-N): > 100 µM (inactive)
- GI50 (SK-MEL-2): > 100 µM (inactive)
- GI50 (NCI-H226): > 100 µM (inactive)
- GI50 (Hs-578T): > 100 µM (inactive)
- GI50 (OVCAR-5): > 100 µM (inactive)
- GI50 (SK-MEL-5): > 100 µM (inactive)
- GI50 (UO-31): > 100 µM (inactive)
- GI50 (NCI-H23): > 100 µM (inactive)
- GI50 (ACHN): > 100 µM (inactive)
- GI50 (PC-3): > 100 µM (inactive)
- GI50 (BT-549): > 100 µM (inactive)
- GI50 (HT-29): > 100 µM (inactive)
- GI50 (CCRF-CEM): > 100 µM (inactive)
- GI50 (SW-620): > 100 µM (inactive)
- GI50 (SN12C): > 100 µM (inactive)
- GI50 (CAKI-1): > 100 µM (inactive)
- GI50 (HCT-116): > 100 µM (inactive)
- GI50 (NCI-H460): > 100 µM (inactive)
- GI50 (T47D): > 100 µM (inactive)
- GI50 (SF-539): > 100 µM (inactive)
- GI50 (HOP-92): > 100 µM (inactive)
- GI50 (M14): > 100 µM (inactive)
- GI50 (MDA-MB-231): > 100 µM (inactive)
- GI50 (786-0): > 100 µM (inactive)
- GI50 (K562): > 100 µM (inactive)
- GI50 (EKVX): > 100 µM (inactive)
- GI50 (MCF7): > 100 µM (inactive)
- GI50 (LOX IMVI): > 100 µM (inactive)
- GI50 (UACC-257): > 100 µM (inactive)
- GI50 (HCT-15): > 100 µM
- GI50 (IGROV-1): > 100 µM (inactive)
- GI50 (OVCAR-8): > 100 µM (inactive)
- GI50 (TK-10): > 100 µM (inactive)
- GI50 (NCI/ADR-RES): > 100 µM (inactive)
- GI50 (U-251): > 100 µM (inactive)
- GI50 (A498): > 100 µM (inactive)
- GI50 (MDA-MB-435): > 100 µM (inactive)
- GI50 (SK-OV-3): > 100 µM (inactive)
- GI50 (SK-MEL-28): > 100 µM (inactive)
- GI50 (HL-60): > 100 µM (inactive)
- GI50 (A549): > 100 µM (inactive)
- GI50 (OVCAR-4): > 100 µM (inactive)
- GI50 (NCI-H522): > 100 µM (inactive)
- GI50 (Malme-3M): > 100 µM (inactive)
